# Experimental data as given in ChEMBL document CHEMBL1140032, “Furoxan-, alkylnitrate-derivatives and related compounds as anti-trypanosomatid agents: mechanism of action studies” (2008).
# Tested on: Trypanosoma cruzi
# Assay: Antitrypanosomal activity against Trypanosoma cruzi Tulahuen 2 assessed as inhibition of epimastigotes growth after 5 days by MTT assay relative to control
# Type: functional
# Conditions: Tulahuen 2, 120 h, read-out: ID50 (the source's name)
row,SMILES,IC50
1,O=S(=O)(c1ccccc1)c1no[n+]([O-])c1S(=O)(=O)c1ccccc1,3.5 µM
2,CCCCCCNC(=O)N/N=C/c1c(-c2ccccc2)no[n+]1[O-],25 µM
3,Cc1ncc([N+](=O)[O-])n1CCOc1nonc1-c1ccccc1,5 µM
4,CCOc1no[n+]([O-])c1-c1ccccc1,7.5 µM
5,O=S(=O)(CCO)c1c(-c2ccccc2)no[n+]1[O-],7.5 µM
6,O=S(=O)(c1ccccc1)c1c(OCCCO)no[n+]1[O-],7.5 µM
7,Cc1ncc([N+](=O)[O-])n1CCOc1no[n+]([O-])c1-c1ccccc1,4 µM
8,O=C(Cn1ccnc1[N+](=O)[O-])NCc1ccccc1 [BENZNIDAZOLE],4.5 µM
9,[O-][n+]1onc(-c2ccccc2)c1Br,5 µM
10,Cc1ncc([N+](=O)[O-])n1CCOc1nonc1S(=O)(=O)c1ccccc1,19 µM
11,CN(C)CCCOc1no[n+]([O-])c1S(=O)(=O)c1ccccc1,3 µM
12,CCOc1no[n+]([O-])c1S(=O)(=O)c1ccccc1,7.5 µM
13,[O-][n+]1onc(Br)c1-c1ccccc1,13 µM
14,O=S(=O)(CCO)c1no[n+]([O-])c1-c1ccccc1,25 µM
15,Cc1ncc([N+](=O)[O-])n1CCOc1no[n+]([O-])c1S(=O)(=O)c1ccccc1,5 µM
16,CCOC(=O)COc1no[n+]([O-])c1S(=O)(=O)c1ccccc1,7.5 µM
17,O=S(=O)(c1ccccc1)c1nonc1S(=O)(=O)c1ccccc1,2 µM
18,CN(C)C(=O)CS(=O)(=O)c1c(-c2ccccc2)no[n+]1[O-],7.5 µM
19,Nc1no[n+]([O-])c1-c1ccccc1,25 µM
20,CC1CS(=O)(=O)CCN1/N=C/c1ccc([N+](=O)[O-])o1 (stereo not given) [NIFURTIMOX],7.7 µM
21,CCOc1c(-c2ccccc2)no[n+]1[O-],18 µM

# Tested on: Leishmania pifanoi
# Assay: Antileishmanial activity against Leishmania pifanoi MHOM/VE/57/LV135 assessed as parasite viability after 5 days by MTT assay
# Type: functional
# Conditions: 120 h, read-out: ID50 (the source's name)
row,SMILES,IC50
1,O=C(Cn1ccnc1[N+](=O)[O-])NCc1ccccc1 [BENZNIDAZOLE],3.8 µM
2,NC(=O)CSc1c(-c2ccccc2)no[n+]1[O-],> 50 µM

# Tested on: Trypanosoma cruzi
# Assay: Antitrypanosomal activity against Trypanosoma cruzi Tulahuen 2 assessed as inhibition of growth of epimastigotes at 25 uM after 5 days by MTT assay relative to control
# Type: functional
# Conditions: Tulahuen 2, 120 h, read-out: GI
row,SMILES,inhibition of growth at 25 µM
1,NC(=O)c1c(CNC(c2c[nH]cn2)C2CCNCC2)no[n+]1[O-] (stereo not given),17%
2,Cc1nonc1-c1nc2ccccc2o1,15%
3,CCOc1nonc1S(=O)(=O)c1ccccc1,25%
4,Cc1no[n+]([O-])c1-c1nc(S)n[nH]1,40%
5,CN(C)Cc1nonc1C#N,13%
6,Cc1nonc1-c1nc(S)n[nH]1,32%
7,COC(=O)CSc1no[n+]([O-])c1-c1ccccc1,15%
8,Cc1ncc([N+](=O)[O-])n1CCOCC[N+](=O)[O-],13%
9,N#Cc1nonc1CN1CCC(Cc2c[nH]cn2)CC1,0%
10,Nc1nonc1-c1ccccc1,45%
11,O=C(O)c1ccc(OCC(CO[N+](=O)[O-])O[N+](=O)[O-])cc1 (stereo not given),0%
12,CN(C)CCCOc1nonc1-c1ccccc1,0%
13,Cc1no[n+]([O-])c1C(=O)NNC(N)=S,10%
14,CCOc1nonc1-c1ccccc1,35%
15,Nc1no[n+]([O-])c1C(=O)N1CCCCC1,17%
16,Cc1c(-c2ccc(C(=O)O)cc2)no[n+]1[O-],34%
17,Cc1c(CNC(c2c[nH]cn2)C2CCNCC2)no[n+]1[O-] (stereo not given),0%
18,Nc1c(-c2ccccc2)no[n+]1[O-],39%
19,CN(C)CCCOc1no[n+]([O-])c1-c1ccccc1,0%
20,Cc1c(-c2nc(S)n[nH]2)no[n+]1[O-],29%
21,O=C(O)c1ccc(CC(CO[N+](=O)[O-])O[N+](=O)[O-])cc1 (stereo not given),0%
22,Cc1no[n+]([O-])c1-c1ccc(C(=O)O)cc1,38%
23,CN(C)Cc1no[n+]([O-])c1C#N,5%
24,O=C(O)CSc1no[n+]([O-])c1-c1ccccc1,4%
25,Cc1c(/C=N/O)no[n+]1[O-],32%
26,Cc1c(CN2CCC(Cc3c[nH]cn3)CC2)no[n+]1[O-],4%

row,SMILES,inhibition of growth at 25 µM
1,[O-][n+]1onc(-c2ccccc2)c1SC1CCNCC1,35%
2,N#Cc1no[n+]([O-])c1-c1ccccc1,15%
3,NC(=O)c1c(CN2CCCCC2)no[n+]1[O-],4%
4,Cc1c(C(=O)NNC(N)=S)no[n+]1[O-],9%
5,NC(=O)c1no[n+]([O-])c1-c1ccccc1,10%
6,O=Cc1ccc(CC(CO[N+](=O)[O-])O[N+](=O)[O-])cc1 (stereo not given),0%
7,NC(=O)c1nonc1CO,0%
8,COc1cc(CN2CCN(c3ccc(CC(CO[N+](=O)[O-])O[N+](=O)[O-])cc3)CC2)cc(OC)c1OC (stereo not given),3%
9,N#Cc1c(CN2CCC(Cc3c[nH]cn3)CC2)no[n+]1[O-],9%
10,CS(=O)(=O)CCOc1no[n+]([O-])c1-c1ccccc1,11%
11,NC(=O)c1nonc1CN1CCCCC1,3%
12,CN(C)CCCOc1nonc1S(=O)(=O)c1ccccc1,15%
13,Cc1nonc1C(=O)NNC(N)=S,16%
14,NC(=O)CSc1c(-c2ccccc2)no[n+]1[O-],19%
15,N#Cc1c(CNC(c2c[nH]cn2)C2CCNCC2)no[n+]1[O-] (stereo not given),7%
16,CS(=O)(=O)CCOc1nonc1-c1ccccc1,4%
17,O=C(O)CSc1nonc1-c1ccccc1,31%
18,[O-][n+]1onc(SC2CCNCC2)c1-c1ccccc1,32%
19,O=S(=O)(c1ccccc1)c1nonc1-c1c[nH]cn1,12%
20,O=Cc1ccc(OCC(CO[N+](=O)[O-])O[N+](=O)[O-])cc1 (stereo not given),1%
21,Cc1nonc1CN1CCC(Cc2c[nH]cn2)CC1,21%
22,Cc1ncc([N+](=O)[O-])n1CCNCc1nonc1C(N)=O,14%
23,CCNCCCO[N+](=O)[O-],0%
24,CN(C)Cc1nonc1C(N)=O,0%
25,Cc1c(CN(C)C)no[n+]1[O-],0%
26,Cc1nonc1-c1ccc(C(=O)O)cc1,32%

row,SMILES,inhibition of growth at 25 µM
1,CN(C)Cc1no[n+]([O-])c1C(N)=O,11%
2,[O-][n+]1onc(/C=N/O)c1CO,3%
3,COC(=O)CSc1c(S(=O)(=O)c2ccccc2)no[n+]1[O-],22%
4,Cc1nonc1CNC(c1c[nH]cn1)C1CCNCC1 (stereo not given),2%
5,NC(=O)c1c(CO)no[n+]1[O-],0%
6,O=C(O)COc1no[n+]([O-])c1S(=O)(=O)c1ccccc1,35%
7,O=C(O)CSc1c(S(=O)(=O)c2ccccc2)no[n+]1[O-],0%
8,NC(=O)c1c(-c2ccccc2)no[n+]1[O-],35%
9,Cc1ncc([N+](=O)[O-])n1CCNCc1no[n+]([O-])c1C,17%
10,Cc1ncc([N+](=O)[O-])n1CCNCc1nonc1C#N,23%
11,c1ccc(-c2nonc2SC2CCNCC2)cc1,34%
12,Cc1nonc1CNCCn1c([N+](=O)[O-])cnc1C,18%
13,Cc1nonc1-c1nc2ccccc2[nH]1,20%
14,NC(=O)c1c(CN2CCC(Cc3c[nH]cn3)CC2)no[n+]1[O-],6%
15,O=S(=O)(CCO)c1nonc1-c1ccccc1,17%
16,[O-][n+]1onc(CO)c1/C=N/O,2%
17,Cc1nonc1-c1nc2ccccc2s1,22%
18,Cc1no[n+]([O-])c1/C=N/O,17%
19,CN(C)CCCOc1nonc1-c1c[nH]cn1,3%
20,N#Cc1nonc1-c1ccccc1,2%
21,Cc1nonc1CN(C)C,0%
22,NC(=O)c1nonc1CN1CCC(Cc2c[nH]cn2)CC1,0%
23,Cc1ncc([N+](=O)[O-])n1CCNCc1no[n+]([O-])c1C(N)=O,10%
24,CCOCC.NC(=O)c1nonc1CNC(c1c[nH]cn1)C1CCNCC1 (stereo not given),0%
25,Cc1ncc([N+](=O)[O-])n1CCNCc1no[n+]([O-])c1C#N,5%

# Tested on: Leishmania braziliensis
# Assay: Antileishmanial activity against Leishmania braziliensis MHOM/BR/00/LTB300 assessed as parasite viability after 5 days by MTT assay
# Type: functional
# Conditions: 120 h, read-out: ID50 (the source's name)
row,SMILES,IC50
1,NC(=O)CSc1c(-c2ccccc2)no[n+]1[O-],> 50 µM

# Tested on: Trypanosoma cruzi
# Assay: Antitrypanosomal activity against Trypanosoma cruzi Y assessed as parasite viability after 5 days by MTT assay
# Type: functional
# Conditions: 120 h, read-out: ID50 (the source's name)
row,SMILES,IC50
1,NC(=O)CSc1c(-c2ccccc2)no[n+]1[O-],> 50 µM
2,CC1CS(=O)(=O)CCN1/N=C/c1ccc([N+](=O)[O-])o1 (stereo not given) [NIFURTIMOX],9.7 µM

# Tested on: Trypanosoma cruzi
# Assay: Antitrypanosomal activity against Trypanosoma cruzi CL Brener assessed as parasite viability after 5 days by MTT assay
# Type: functional
# Conditions: 120 h, read-out: ID50 (the source's name)
row,SMILES,IC50
1,NC(=O)CSc1c(-c2ccccc2)no[n+]1[O-],> 50 µM
2,CC1CS(=O)(=O)CCN1/N=C/c1ccc([N+](=O)[O-])o1 (stereo not given) [NIFURTIMOX],4.9 µM
